The results in this text go back to ChEMBL document CHEMBL1148573, “Design, synthesis, and binding affinities of potential positron emission tomography (PET) ligands for visualization of brain dopamine D3 receptors” (J Med Chem, 2006).

One data set addresses D(3) dopamine receptor (Homo sapiens, UniProt P35462). The data set can be described thus: biochemical.
The target in a further data set is D(2) dopamine receptor (Homo sapiens, UniProt P14416). The data set can be described thus: biochemical.
D(2) dopamine receptor, sequence (P14416 whole entry): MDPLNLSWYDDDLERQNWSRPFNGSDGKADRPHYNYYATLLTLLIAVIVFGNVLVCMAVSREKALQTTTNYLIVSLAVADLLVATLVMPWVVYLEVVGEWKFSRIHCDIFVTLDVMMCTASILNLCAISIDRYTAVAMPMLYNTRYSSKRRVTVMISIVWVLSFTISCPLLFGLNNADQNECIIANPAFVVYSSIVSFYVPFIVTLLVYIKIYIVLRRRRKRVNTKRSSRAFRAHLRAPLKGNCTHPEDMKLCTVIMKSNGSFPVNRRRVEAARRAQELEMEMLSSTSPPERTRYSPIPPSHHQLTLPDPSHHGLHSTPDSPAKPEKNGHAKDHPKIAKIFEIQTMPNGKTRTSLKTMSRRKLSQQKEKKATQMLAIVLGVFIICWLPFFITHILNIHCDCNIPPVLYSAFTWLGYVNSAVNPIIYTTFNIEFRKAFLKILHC
The nature of data set [1]: Partition coefficient measured. It is filed as physicochemical. The conditions noted are these: octanol/water.
The nature of data set [2]: Apparent permeability assessed by Caco-2 layer assay. It is filed as ADME, cell-based. The conditions noted are these: human. (Passage across Caco-2 layers is used to estimate intestinal permeability.)
Data set [3] in a line: Distribution coefficient at pH 7.4. It counts as physicochemical. The conditions noted are these: octanol/water.

Bounds are passed on as bounds.

D(3) dopamine receptor, sequence (P35462 whole entry): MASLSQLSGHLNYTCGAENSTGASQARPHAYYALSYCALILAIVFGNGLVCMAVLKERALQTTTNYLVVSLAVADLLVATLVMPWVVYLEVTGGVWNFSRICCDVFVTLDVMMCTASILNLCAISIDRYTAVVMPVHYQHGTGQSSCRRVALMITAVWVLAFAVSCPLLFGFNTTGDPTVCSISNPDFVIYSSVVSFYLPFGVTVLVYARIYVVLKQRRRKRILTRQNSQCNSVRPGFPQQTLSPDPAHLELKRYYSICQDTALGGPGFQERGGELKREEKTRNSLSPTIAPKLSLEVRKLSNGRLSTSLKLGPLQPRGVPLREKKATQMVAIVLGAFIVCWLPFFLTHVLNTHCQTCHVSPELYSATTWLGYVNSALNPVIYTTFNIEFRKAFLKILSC
Description for D(2) dopamine receptor: Displacement of [3H]spiroperidol from cloned human dopamine receptor D2(long) expressed in rat C6 glioma cells
Description for D(3) dopamine receptor: Displacement of [3H]spiroperidol from cloned human dopamine receptor D3 expressed in CHO cells

On to `COc1ccccc1N1CCN(CCCCNC(=O)c2cc3ccccc3oc2=O)CC1`, for which the Ki stood at 60.1 nM on D(3) dopamine receptor and 146 nM on D(2) dopamine receptor.

In data set [1], `COc1ccc2onc(N3CCN(CCCCNC(=O)c4ccc(N5CCOCC5)cc4)CC3)c2c1` had a logP of 3.16. For the same compound, the Papp in data set [2] is 36.3 ×10⁻⁶ cm/s. In data set [3], this compound returned a logD of 2.96. The results for the Ki on D(3) dopamine receptor and on D(2) dopamine receptor were 38 nM and over 750 nM, respectively.

As to `COc1ccc2onc(N3CCN(CCCCNC(=O)c4cccc(-c5ncccn5)c4)CC3)c2c1`, the figures for the Ki at D(3) dopamine receptor and at D(2) dopamine receptor were 1140 nM and over 1000 nM, respectively.

Regarding `COc1ccc2onc(N3CCN(CCCCNC(=O)c4cc5cccc(OC)c5o4)CC3)c2c1`, the Ki on D(3) dopamine receptor was 98 nM; at D(2) dopamine receptor, over 750 nM.

As for `COc1ccc2onc(N3CCN(CCCCNC(=O)c4ccc(-n5ccnc5)cc4)CC3)c2c1`, in data set [1], the logP was 2.63. The Papp in data set [2] is 6.56 ×10⁻⁶ cm/s. In addition, the logD in data set [3] worked out at 2.42. For the same compound, the Ki is 22.6 nM on D(3) dopamine receptor and over 750 nM at D(2) dopamine receptor.

Turning to `COc1ccc2onc(N3CCN(CCCCNC(=O)c4cccc(N5CCOCC5)c4)CC3)c2c1`, the Ki on D(3) dopamine receptor is 1440 nM; at D(2) dopamine receptor, over 1000 nM.

With `COc1ccccc1N1CCN(CCCCNC(=O)c2ccc3nccnc3c2)CC1`, the values for the Ki at D(3) dopamine receptor and on D(2) dopamine receptor were 77.9 nM and 179 nM, respectively.

With `COc1ccc2onc(N3CCN(CCCCNC(=O)c4ccc5nccnc5c4)CC3)c2c1`, the Ki at D(3) dopamine receptor is 220 nM; at D(2) dopamine receptor, over 750 nM.

With `COc1ccc2onc(N3CCN(CCCCNC(=O)c4cc(-c5ccco5)n[nH]4)CC3)c2c1`, the logP in data set [1] amounted to 2.98. Moreover, the Papp in data set [2] was determined as 7.39 ×10⁻⁶ cm/s. Further, in data set [3], the logD is 2.43. The Ki at D(3) dopamine receptor is 21.4 nM; on D(2) dopamine receptor it was over 750 nM.

For `COc1ccccc1N1CCN(CCCCNC(=O)c2cc(-c3ccco3)[nH]n2)CC1`, the Ki at D(3) dopamine receptor is 19.3 nM; at D(2) dopamine receptor it was 130 nM.

With `COc1ccc2onc(N3CCN(CCCCNC(=O)c4ccc5c(c4)OCO5)CC3)c2c1`, the inhibition constant Ki at D(3) dopamine receptor is 118 nM; on D(2) dopamine receptor, over 750 nM.

Regarding `COc1cccc2cc(C(=O)NCCCCN3CCN(c4nc5ccccc5[nH]4)CC3)oc12`, the Ki at D(3) dopamine receptor is over 8500 nM; at D(2) dopamine receptor it was over 750 nM.

With `COc1ccc2ccnc(N3CCN(CCCCNC(=O)c4cc5cccc(OC)c5o4)CC3)c2c1`, the Ki on D(3) dopamine receptor was found to be 102 nM.

As for `COc1ccccc1N1CCN(CCCCNC(=O)c2ccc(-n3ccnc3)cc2)CC1`, the inhibition constant (Ki) at D(3) dopamine receptor turned out to be 4.79 nM; on D(2) dopamine receptor it was 27.2 nM.

`COc1ccc2onc(N3CCN(CCCCNC(=O)c4cc5ccccc5oc4=O)CC3)c2c1`: the figures for the Ki at D(3) dopamine receptor and on D(2) dopamine receptor were over 2700 nM and over 750 nM, respectively.

With `COc1cccc2cc(C(=O)NCCCCN3CCN(c4cccc5nccnc45)CC3)oc12`, the Ki was 262 nM on D(3) dopamine receptor and 1250 nM at D(2) dopamine receptor.

In the case of `COc1ccccc1N1CCN(CCCCNC(=O)c2ccc3c(c2)OCO3)CC1`, the Ki came out at 14.7 nM on D(3) dopamine receptor and 86.2 nM on D(2) dopamine receptor.

Take `COc1ccccc1N1CCN(CCCCNC(=O)c2cc3cccc(OC)c3o2)CC1`: the inhibitory constant (Ki) on D(3) dopamine receptor was determined as 25.5 nM; on D(2) dopamine receptor, 369 nM.

On to `COc1cccc2cc(C(=O)NCCCCN3CCN(c4[nH]nc5ccccc45)CC3)oc12`, for which the Ki came to 127 nM at D(3) dopamine receptor and 56.6 nM on D(2) dopamine receptor.

As for `COc1ccc2oc(N3CCN(CCCCNC(=O)c4cc5cccc(OC)c5o4)CC3)nc2c1`, the results for the Ki on D(3) dopamine receptor and at D(2) dopamine receptor were over 8500 nM and over 750 nM, respectively.

Turning to `COc1ccccc1N1CCN(CCCCNC(=O)c2ccc(N3CCOCC3)cc2)CC1`, the Ki on D(3) dopamine receptor is 23.9 nM; on D(2) dopamine receptor, 141 nM.

Take `COc1ccc2onc(N3CCN(CCCCNC(=O)c4ccc5nonc5c4)CC3)c2c1`: the Ki at D(3) dopamine receptor was 85 nM; at D(2) dopamine receptor, over 750 nM.

As for `COc1ccccc1N1CCN(CCCCNC(=O)c2ccc3nonc3c2)CC1`, the Ki is 58.5 nM on D(3) dopamine receptor and over 1000 nM on D(2) dopamine receptor.

Regarding `COc1ccc2onc(N3CCN(CCCCNC(=O)c4cccc(-c5noc(C)n5)c4)CC3)c2c1`, the Ki on D(3) dopamine receptor was 1280 nM; on D(2) dopamine receptor, over 1000 nM.

`COc1ccc2onc(N3CCN(CCCCNC(=O)c4cccc(-n5ccnc5)c4)CC3)c2c1`: the Ki was 5540 nM on D(3) dopamine receptor and over 1000 nM at D(2) dopamine receptor.

By Ki is commonly meant the dissociation constant of the complex between target and ligand, obtained from inhibition or displacement. Usually logP stands for a log measure of how a compound divides between an organic and an aqueous phase. Higher therefore signals a more lipophilic compound. By Papp is commonly meant the rate of passage across a membrane or cell layer, normalised by area and donor concentration. As usually defined, the logD is lipophilicity at a set pH, counting ionised and neutral species.
